Article PMC7321065, “Discovery of New Schiff Bases Tethered Pyrazole Moiety: Design, Synthesis, Biological Evaluation, and Molecular Docking Study as Dual Targeting DHFR/DNA Gyrase Inhibitors with Immunomodulatory Activity” (Molecules, 2020)

Columns and labels:
Salmonella typhi = test: Inhibition zone, agar plate diffusion; assay type: cell-based; conditions: Salmonella enterica, St, mm ± standard deviation, sample at 0.5 mg/mL, read-out: Inhibition zone (IZ)
Procedure: (§1) Antimicrobial activities of the newly formed Schiff bases (6a–d, 7a–d, 8a–d, and 9a–d) and reference drugs were evaluated against three Gram-positive, three Gram-negative, and two fungi strain at Al-Azhar University, Cairo, Egypt. The inhibition zones (IZ, in mm ± standard deviation) and the minimal inhibitory concentration (MIC) (μg/mL) were determined by the conventional paper disk diffusion method.
(§2) In Vitro Antimicrobial Activities
(§3) The antimicrobial activities inhibition zone (IZ, mm±standard deviation) of pyrazole Schiff bases ( 6a-d , 7a-d, 8a-d and 9a-d ) was measurement according to the agar plate diffusion method. Briefly, 100 µl of the […]
(§4) […] of each sample (at 0.5 mg/mL) was added to each well (10 mm diameter holes cut in the agar gel). The plates were incubated for 24 h at 37 °C (for bacteria and yeast) and for 72 h at 27 °C (for filamentous fungi), each test was repeated three times. After incubation, the microorganism's growth was observed. […]
(§5) drugs while Amphotericin B was used as standard antifungal drug. The resulting inhibition zone diameters were measured in millimeters and used as criterion for the antimicrobial activity. Solvent controls (DMSO) were included in every experiment as negative controls. DMSO was used for dissolving […]
(§6) the tested microorganisms. […]
(§7) Bacteria were grown on nutrient agar medium, while fungi and yeast were grown on Sabouraud agar medium. […]

Candida albicans = test: Inhibition zone, agar plate diffusion; assay type: cell-based; conditions: Ca, mm ± standard deviation, sample at 0.5 mg/mL, read-out: Inhibition zone (IZ)
Procedure: as §1, §2, §3, §4, §5, §6, §7

Staphylococcus aureus = test: Inhibition zone, agar plate diffusion; assay type: cell-based; conditions: Sa, mm ± standard deviation, sample at 0.5 mg/mL, read-out: Inhibition zone (IZ)
Procedure: as §1, §2, §3, §4, §5, §6, §7

Fusarium oxysporum = test: Inhibition zone, agar plate diffusion; assay type: cell-based; conditions: Fo, mm ± standard deviation, sample at 0.5 mg/mL, read-out: Inhibition zone (IZ)
Procedure: as §1, §2, §3, §4, §5, §6, §7

Pseudomonas aeruginosa = test: Inhibition zone, agar plate diffusion; assay type: cell-based; conditions: Pa, mm ± standard deviation, sample at 0.5 mg/mL, read-out: Inhibition zone (IZ)
Procedure: as §1, §2, §3, §4, §5, §6

Enterococcus faecalis = test: Inhibition zone, agar plate diffusion; assay type: cell-based; conditions: Ef, mm ± standard deviation, sample at 0.5 mg/mL, read-out: Inhibition zone (IZ)
Procedure: as §1, §2, §3, §4, §5, §6

Bacillus subtilis = test: Inhibition zone, agar plate diffusion; assay type: cell-based; conditions: Bs, mm ± standard deviation, sample at 0.5 mg/mL, read-out: Inhibition zone (IZ)
Procedure: as §1, §2, §3, §4, §5, §6

Escherichia coli = test: Inhibition zone, agar plate diffusion; assay type: cell-based; conditions: Ec, mm ± standard deviation, sample at 0.5 mg/mL, read-out: Inhibition zone (IZ)
Procedure: as §1, §2, §3, §4, §5, §6

| SMILES | zone of inhibition at 500 µg/mL (Salmonella typhi) [mm] | zone of inhibition at 500 µg/mL (Candida albicans) [mm] | zone of inhibition at 500 µg/mL (Staphylococcus aureus) [mm] | zone of inhibition at 500 µg/mL (Fusarium oxysporum) [mm] | zone of inhibition at 500 µg/mL (Pseudomonas aeruginosa) [mm] | zone of inhibition at 500 µg/mL (Enterococcus faecalis) [mm] | zone of inhibition at 500 µg/mL (Bacillus subtilis) [mm] | zone of inhibition at 500 µg/mL (Escherichia coli) [mm] | melting point [°C] |
| --- | --- | --- | --- | --- | --- | --- | --- | --- | --- |
| COc1ccc(Nc2n[nH]c(N=Cc3cc(OC)c(OC)c(OC)c3)c2C(N)=O)cc1 [9a, 3-(p-Methoxyphenylamino)-5-(3,4,5-trimethoxybenzylideneamino)-1H-pyrazole-4-carboxamide] | 20 ± 0.33 | 22 ± 0.19 | 21 ± 0.17 | 19 ± 0.55 | 17 ± 0.2 | 19 ± 0.14 | 25 ± 0.21 | 22 ± 0.18 | 222 to 224 |
| COc1ccc(Nc2n[nH]c(N=Cc3cc(OC)c(OC)c(OC)c3)c2C(=O)Nc2ccc(C)cc2)cc1 [9c, 3-(p-Methoxyphenylamino)-N-p-tolyl-5-(3,4,5-trimethoxybenzylideneamino)-1H-pyrazole-4-carboxamide] | 23 ± 0.33 | 21 ± 0.5 | 22 ± 0.34 | 19 ± 0.28 | < 8 | 21 ± 0.72 | 22 ± 0.18 | 23 ± 0.44 | 234 to 236 |
| COc1ccc(Nc2n[nH]c(N=Cc3cc(OC)c(OC)c(OC)c3)c2C(=O)Nc2ccc(Cl)cc2)cc1 [9d, N-(p-Chlorophenyl)-3-(p-methoxyphenylamino)-5-(3,4,5-trimethoxybenzylideneamino)-1H-pyrazole-4-carboxamide] | 12 ± 0.61 | 18 ± 0.2 | 16 ± 0.54 | 14 ± 0.38 | < 8 | < 8 | 18 ± 0.12 | 15 ± 0.96 | 213 to 215 |
